Several values for one entry are separate records, joined by “and”; a condition that tells them apart may be missing. Equal entries are not always repeated.
Tests used:
[1] = system: TA100; test: In vitro bacterial mutagenicity assay (pre-incubation), strain TA100; settings: for Number of revertants x1, x2, x3: individual plates
Protocol: (§1) Dispense 100 microliter aliquots of the appropriate bacterial cultures into sample tubes stored on ice. Dispense aliquots of the vehicle, positive controls or dose formulations into the appropriate sample tubes. 2 mL top Agar and HBT cap was added to the sample tube, inverted three times and poured into MG plate. The lid was replaced on the plate and left on a level surface to let the agar harden. The plates were incubated in an incubator for 48 to 72 h. The background lawn and count the number of revertants was checked for each plate.

[2] = 14 day tolerability study in uPA SCID (KMT) mouse; type: in vivo; settings: for tolerability: 300 mg/kg once a day by oral gavage for 14 days, KMT mice
Protocol: Two separate groups of animals were treated with vehicle control or with a daily drug dose of 300 mg/kg for 14 days. Blood samples were taken 15 minutes after the drug doses on Day 1 (first dose), Day 7 and Day 14 (last dose) for measurement of the concentration of the drug in the serum of study animals. Body weights and health index scores were monitored daily in order to assess tolerance of the study animals to the dosing procedure and the drug. […] The solution was used to dose animals in a volume of 7.5 ml/kg. The citric acid buffer was also used for dosing of the vehicle control animals.
Ten KMT transgenic animals with low engraftment of human liver cells (hAAT values less than 20 at 6 weeks) were allocated to this study. Individual body weights of animals were recorded prior to treatment and daily during the study. Animals were also evaluated once a day (at morning dose administration) for clinical signs and monitored for morbidity and mortality. The study animals were allocated into 2 groups of 5 animals. Compound 2 or citric acid vehicle control were administered once a day by oral gavage employing a sterile syringe and feeding needle for each animal. Dosing volume was 7.5 mL/kg (150 μL/20 grams body weight) for all groups. The volume was adjusted based on the daily body weight of each individual animal. […] The study started on Day 1 with the first drug dose administered in the morning and continued up to Day 14, the last day of drug treatment. Blood was collected via the central tail artery from all animals of each group on Day 1, fifteen minutes after the first drug dose, on Day 7, fifteen minutes after the drug dose, and on Day 14, fifteen minutes after the last drug dose. The blood samples were allowed to clot and the serum removed from above the clot pellet. Serum samples were stored at −80° C. prior to shipment to the study client. […]
Individual body weights of the animals were recorded prior to treatment and daily during the course of the study. The animals were also evaluated daily for clinical signs and monitored for morbidity and mortality. […]

[3] = MTT cytotoxicity assay, MDBK; type: cell-based; settings: cattle, MDBK cells, 24-hour incubation
Protocol: (§2) Cellular cytotoxicity profile of the compounds was carried out against a panel of cell lines. Standard MTT assays were performed in 96-well plates using the Promega CellTiter96 Non-radioactive Cell Proliferation Assay Kit in conjunction with a 96-well Plate Reader (ThermoMax, Molecular devices), and MDBK, Vero, and HFF cell lines (obtained from ATCC). Several controls were employed including the nucleoside analogs 3TC, AZT, and ddC, as well as, media without drugs. SDS was used as a positive cytotoxic control. The compounds were tested in triplicate at concentrations of 100, 300, and 1000 μM. Following a 24-hour incubation of cells with the test substance, the MTT assay was carried out.

[4] = system: TA1537; test: In vitro bacterial mutagenicity assay (pre-incubation), strain TA1537; settings: for Number of revertants x1, x2, x3: individual plates
Protocol: as §1

[5] = system: bacterial strains TA1535, TA1537, TA98, TA100, WP2 uvrA; test: In vitro bacterial mutagenicity assay, overall conclusions for all strains
Protocol: as §1

[6] = MTT cytotoxicity assay, Vero; type: cell-based; settings: African green monkey, Vero cells, 24-hour incubation
Protocol: as §2

[7] = system: TA98; test: In vitro bacterial mutagenicity assay (pre-incubation), strain TA98; settings: for Number of revertants x1, x2, x3: individual plates
Protocol: as §1

[8] = TA100, absence of S9, 50 μg/plate
[9] = TA100, absence of S9, 158 μg/plate
[10] = TA100, absence of S9, 500 μg/plate
[11] = TA100, absence of S9, 1581 μg/plate
[12] = TA100, absence of S9, 5000 μg/plate
[13] = TA100, presence of S9, 50 μg/plate
[14] = TA100, presence of S9, 158 μg/plate
[15] = TA100, presence of S9, 500 μg/plate
[16] = TA100, presence of S9, 1581 μg/plate
[17] = TA100, presence of S9, 5000 μg/plate
[18] = TA1537, absence of S9, 50 μg/plate
[19] = TA1537, absence of S9, 158 μg/plate
[20] = TA1537, absence of S9, 500 μg/plate
[21] = TA1537, absence of S9, 1581 μg/plate
[22] = TA1537, absence of S9, 5000 μg/plate
[23] = TA1537, presence of S9, 50 μg/plate
[24] = TA1537, presence of S9, 158 μg/plate
[25] = TA1537, presence of S9, 500 μg/plate
[26] = TA1537, presence of S9, 1581 μg/plate
[27] = TA1537, presence of S9, 5000 μg/plate
[28] = TA98, absence of S9, 50 μg/plate
[29] = TA98, absence of S9, 158 μg/plate
[30] = TA98, absence of S9, 500 μg/plate
[31] = TA98, absence of S9, 1581 μg/plate
[32] = TA98, absence of S9, 5000 μg/plate
[33] = TA98, presence of S9, 50 μg/plate
[34] = TA98, presence of S9, 158 μg/plate
[35] = TA98, presence of S9, 500 μg/plate
[36] = TA98, presence of S9, 1581 μg/plate
[37] = TA98, presence of S9, 5000 μg/plate

COC1C(OP(=O)(OC[C@H]2O[C@@H](n3cnc4c(N)ncnc43)CC2O)SCOC(=O)OC(C)C)[C@@H](CO)O[C@H]1n1ccc(=O)[nH]c1=O (some centres unmarked) [Compound 2, S-isopropylcarbonyloxymethyl thiophosphate (6k) of 3′dApsU2′OMe]
Number of revertants mean [1, 8]: 112
Number of revertants x1, x2, x3 [1, 8]: 98 and 112 and 127
Number of revertants mean [1, 9]: 121
Number of revertants x1, x2, x3 [1, 9]: 110 and 133 and 119
Number of revertants mean [1, 10]: 133
Number of revertants x1, x2, x3 [1, 10]: 134 and 127 and 138
Number of revertants mean [1, 11]: 113
Number of revertants x1, x2, x3 [1, 11]: 122 and 107 and 109
Number of revertants mean [1, 12]: 115
Number of revertants x1, x2, x3 [1, 12]: 98 and 126 and 122
Number of revertants mean [1, 13]: 107
Number of revertants x1, x2, x3 [1, 13]: 111 and 109 and 100
Number of revertants mean [1, 14]: 120
Number of revertants x1, x2, x3 [1, 14]: 115 and 133 and 111
Number of revertants mean [1, 15]: 126
Number of revertants x1, x2, x3 [1, 15]: 134 and 137 and 108
Number of revertants mean [1, 16]: 126
Number of revertants x1, x2, x3 [1, 16]: 136 and 122 and 121
Number of revertants mean [1, 17]: 126
Number of revertants x1, x2, x3 [1, 17]: 122 and 130 and 126
body weight change ([2]; 300 mg/kg daily, Day 1 to Day 14, one animal in the drug group (F187)): small decrease in body weight
tolerability [2]: generally well tolerated
tolerability ([2]; listed as drug): well tolerated
CC50 at 24 h [3]: > 1000 µM
Number of revertants mean [4, 18]: 11
Number of revertants x1, x2, x3 [4, 18]: 8 and 17 and 9
Number of revertants mean [4, 19]: 12
Number of revertants x1, x2, x3 [4, 19]: 9 and 8 and 19
Number of revertants mean [4, 20]: 10
Number of revertants x1, x2, x3 [4, 20]: 15 and 6 and 10
Number of revertants mean [4, 21]: 15
Number of revertants x1, x2, x3 [4, 21]: 17 and 15 and 13
Number of revertants mean [4, 22]: 11
Number of revertants x1, x2, x3 [4, 22]: 15 and 9 and 8
Number of revertants mean [4, 23]: 17
Number of revertants x1, x2, x3 [4, 23]: 20 and 17 and 15
Number of revertants mean [4, 24]: 18
Number of revertants x1, x2, x3 [4, 24]: 16 and 18 and 21
Number of revertants mean [4, 25]: 17
Number of revertants x1, x2, x3 [4, 25]: 25 and 12 and 15
Number of revertants mean [4, 26]: 15
Number of revertants x1, x2, x3 [4, 26]: 18 and 15 and 13
Number of revertants mean [4, 27]: 12
Number of revertants x1, x2, x3 [4, 27]: 11 and 15 and 10
increases in the revertant colony counts ([5]; any strain, absence or presence of S9 mix): No substantial increases in the revertant colony counts
precipitation in the bacterial mutation test ([5]; formulated in DMSO, up to 5000 μg/plate): No precipitation was observed
toxicity to the bacteria (thinning of the background lawn of non-revertant bacteria) ([5]; up to 5000 μg/plate): non-toxic to the bacteria at the levels tested
CC50 at 24 h [6]: > 1000 µM
Number of revertants mean [7, 28]: 22
Number of revertants x1, x2, x3 [7, 28]: 18 and 15 and 33
Number of revertants mean [7, 29]: 27
Number of revertants x1, x2, x3 [7, 29]: 28 (2×) and 25
Number of revertants mean [7, 30]: 24
Number of revertants x1, x2, x3 [7, 30]: 21 and 20 and 31
Number of revertants mean [7, 31]: 25
Number of revertants x1, x2, x3 [7, 31]: 24 and 18 and 33
Number of revertants mean [7, 32]: 24
Number of revertants x1, x2, x3 [7, 32]: 27 and 26 and 20
Number of revertants mean [7, 33]: 45
Number of revertants x1, x2, x3 [7, 33]: 43 and 39 and 53
Number of revertants mean [7, 34]: 40
Number of revertants x1, x2, x3 [7, 34]: 37 and 48 and 34
Number of revertants mean [7, 35]: 39
Number of revertants x1, x2, x3 [7, 35]: 31 and 40 and 46
Number of revertants mean [7, 36]: 45
Number of revertants x1, x2, x3 [7, 36]: 44 (2×) and 46
Number of revertants mean [7, 37]: 44
Number of revertants x1, x2, x3 [7, 37]: 53 and 36 and 43

From patent US8404651B2, “Compositions and methods for treating viral infections” (priority 2008, dated 2013)
